One may read the pKa as the pH at which an ionisable group is half protonated. The low end stands for a group that gives up its proton readily, the high end for a group that holds its proton tightly.

This note sets out measurements from patent publication US8507677B2, “Fluorescent probe” (The University of Tokyo, priority 2007, dated 2013).

This series in a line: pKa values of pH probes (control of pKa by changing structure). It is filed as physicochemical. As to conditions: pH probe. The source says: By using the pH probe described in the present invention, change of pH can be detected in a range including pKa of the compound according to the fluorescence ratio method or the absorbance ratio method. Compounds 1 to 5 have different pKa values, and accordingly, pH ranges suitable for the detection are different among them. Therefore, a pH probe suitable for a pH range desired to be detected can be chosen and used by utilizing the difference. Similarly, by suitably choosing R^3, R^4 and/or R^5 in the general formula (I), or R^13, R^14 and/or R^15 in the general formula (IA), a pH probe having a desired pKa and thus suitable for measurement of a desired pH range can be designed and provided.
Consider `CN1CCN(C2=C(/C=C/C3=[N+](C)c4ccccc4C3(C)C)CCC/C2=C\C=C2\N(C)c3ccccc3C2(C)C)CC1` [Compound 4], for which the pKa amounted to 6.8.
Regarding `CN1/C(=C/C=C2\CCCC(/C=C/C3=[N+](C)c4ccccc4C3(C)C)=C2N2CCN(Cc3ccccc3)CC2)C(C)(C)c2ccccc21` [Compound 1], the pKa was 5.5.
Consider `CN(C)CCN(C)C1=C(/C=C/C2=[N+](C)c3ccccc3C2(C)C)CCC/C1=C\C=C1\N(C)c2ccccc2C1(C)C` [Compound 2], for which the pKa was determined as 8.1.
For the compound `CCN(CC)CCN(C)C1=C(/C=C/C2=[N+](C)c3ccccc3C2(C)C)CCC/C1=C\C=C1\N(C)c2ccccc2C1(C)C` [Compound 3], the pKa is 8.7.
Then `CN1/C(=C/C=C2\CCCC(/C=C/C3=[N+](C)c4ccccc4C3(C)C)=C2N2CCN(c3ccccc3)CC2)C(C)(C)c2ccccc21` [Compound 5], with 2.1.
